Literature values, collected in patent publication US20110253140A1, “FORMULATIONS CONTAINING LARGE-SIZE CARRIER PARTICLES FOR DRY POWDER INHALATION AEROSOLS” (STC.UNM, priority 2008, published 2011).
Read-outs that look alike come from different tables or passages of the source.

lung deposition, % of the metered dose (PIF 35 L/min): 14.8%
lung deposition, % of the metered dose (peak inspiratory flow rate (PIF) 60 L/min): 27.7%
SMILES: CCCC1O[C@@H]2C[C@H]3[C@@H]4CCC5=CC(=O)C=C[C@]5(C)[C@H]4[C@@H](O)C[C@]3(C)[C@]2(C(=O)CO)O1 (some centres unmarked) [budesonide]
